Counter-ions that a name gives are not always drawn.
System: eNOS promoter
Assay: Activation of eNOS transcription (eNOS promoter-luciferase reporter gene assay)
Assay type: cell-based, human
Conditions: 18 h incubation; for EC50: EC50 of transcription induction ratio vs compound concentration, determined graphically, human endothelial cell line stably transfected with eNOS promoter-luciferase construct; for maximal fold induction / TIR(max): maximum transcription induction ratio (luciferase activity with compound / solvent alone), human endothelial cell line with eNOS promoter-luciferase construct; for maximal fold induction: read-out: TIR(max)
Description: Measurement of Activation of eNOS Transcription
Activation of eNOS transcription was measured as described in detail in Li et al. “Activation of protein kinase C alpha and/or epsilon enhances transcription of the human endothelial nitric oxide synthase gene”, Mol. Pharmacol. 1998; 53: 630-637.
Briefly, a 3.5 kB long fragment 5′ of the starting codon of the eNOS gene was cloned, sequenced and cloned in firefly luciferase expression plasmids to monitor activation of the eNOS promoter by reporter gene activity. A human endothelial cell line stable transfected and expressing this promoter-reporter construct was used for compound testing. Cells were incubated for 18 h with compounds.
All compounds were dissolved in sterile DMSO. A final concentration of 0.5% DMSO in complete medium was allowed. Induction of reporter gene expression in these cells was measured using a standard luciferase assay system (Promega, Cat. No E150) according to the manufacturer's instructions. Luciferase induction in cells incubated with compounds were compared to those incubated with solvent alone. The ratio of both activities (transcription induction ratio, TIR) was plotted as a function of compound concentration. Typically, TIR values started at low concentrations at a ratio of 1, indicating no compound effect, and extended up to a maximum TIR value TIR(max) which indicates the increase of the eNOS transcription. EC50 values of transcription induction ratios as a function of compound concentration were determined graphically.

Compound | EC50 | maximal fold induction | TIR(max)
Cc1ccc(C(=O)N[C@H]2CCCc3ccccc3C2)cc1N(C)C [Compound 131, (S)-3-DIMETHYLAMINO-4-METHYL-N-(6,7,8,9-TETRAHYDRO-5H-BENZOCYCLOHEPTEN-6-YL)-BENZAMIDE] | 440 nM | 3.1 | 
O=C(NC1CCCc2ccccc2C1)c1ccc(F)cc1 (single isomer, unassigned; (+)) [Compound 1b, (+)-4-Fluoro-N-(6,7,8,9-tetrahydro-5H-benzocyclohepten-6-yl)-benzamide] | 6000 nM |  | 2.9
O=C(NC1CCCc2ccccc2C1)c1ccc(N2CCCC2)nc1 (stereo not drawn) [Compound 82, 6-PYRROLIDIN-1-YL-N-(6,7,8,9-TETRARYDRO-5H-BENZOCYCLOHEPTEN-6-YL)-NICOTINAMIDE] | 283 nM |  | 3.2
Nc1nc(Cl)ccc1C(=O)NC1CCCc2ccccc2C1 (stereo not drawn) [Compound 137, 2-AMINO-6-CHLORO-N-(6,7,8,9-TETRAHYDRO-5H-BENZOCYCLOHEPTEN-6-YL)-NICOTINAMIDE] | 90 nM | 3 | 
Cc1nc(C(F)(F)F)ccc1C(=O)NC1CCCc2ccccc2C1 (single isomer, unassigned) [Compound 39, 2-METHYL-N-(6,7,8,9-TETRAHYDRO-5H-BENZOCYCLOHEPTEN-6-YL)-6-TRIFLUOROMETHYL-NICOTINAMIDE] | 496 nM | 2.9 | 
O=C(NC1CCCc2ccccc2C1)c1cccc(N2CCOCC2)c1 (stereo not drawn) [Compound 108, 3-MORPHOLIN-4-YL-N-(6,7,8,9-TETRAHYDRO-5H-BENZOCYCLOHEPTEN-6-YL)-BENZAMIDE] | 14000 nM | 3.1 | 
O=C(NC1CCCc2ccccc2C1)c1cn2ccccc2n1 (stereo not drawn) [Compound 85, IMIDAZO[1,2-A]PYRIDINE-2-CARBOXYLIC ACID (6,7,8,9-TETRAHYDRO-5H-BENZOCYCLOHEPTEN-6-YL)-AMIDE] | 15000 nM | 3 | 
CS(=O)(=O)Nc1cccc(C(=O)NC2CCCc3ccccc3C2)c1 (stereo not drawn) [Compound 97, 3-METHANESULFONYLAMINO-N-(6,7,8,9-TETRAHYDRO-5H-BENZOCYCLOHEPTEN-6-YL)-BENZAMIDE] | 1000 nM | 2.5 | 
COc1ccc(C(=O)N[C@H]2CCCc3ccccc3C2)cn1 [Compound 130, (S)-6-METHOXY-N-(6,7,8,9-TETRAHYDRO-5H-BENZOCYCLOHEPTEN-6-YL)-NICOTINAMIDE] | 110 nM | 3.1 | 
O=C(NC1CCCc2ccccc2C1)c1cccc2[nH]ccc12 (stereo not drawn) [Compound 12, 1H—INDOLE-4-CARBOXYLIC ACID (6,7,8,9-TETRAHYDRO-5H-BENZOCYCLOHEPTEN-6-YL)-AMIDE] | 136 nM | 3 | 
O=C(NC1CCCc2ccccc2C1)c1ccnc(N2CCCC2)c1 (single isomer, unassigned; (+)) [Compound 149, (+)-2-PYRROLIDIN-1-YL-N-(6,7,8,9-TETRAHYDRO-5H-BENZOCYCLOHEPTEN-6-YL)-ISONICOTINAMIDE] | 3400 nM | 3 | 
Cc1cc(C(=O)NC2CCCc3ccccc3C2)c(C)n1Cc1ccncc1 (single isomer, unassigned; (-)) [Compound 48, (−)-2,5-DIMETHYL-1-PYRIDIN-4-YLMETHYL-1H-PYRROLE-3-CARBOXYLIC ACID (6,7,8,9-TETRAHYDRO-5H-BENZOCYCLOHEPTEN-6-YL)-AMIDE] | 590 nM |  | 3.4
Cc1c(NS(C)(=O)=O)cccc1C(=O)NC1CCCc2ccccc2C1 (stereo not drawn) [Compound 99, 3-METHANESULFONYLAMINO-2-METHYL-N-(6,7,8,9-TETRAHYDRO-5H-BENZOCYCLOHEPTEN-6-YL)-BENZAMIDE] | 2800 nM | 2.5 | 
Cc1cc(C(=O)NC2CCCc3ccccc3C2)c(C)[nH]1 (single isomer, unassigned; (-)) [Compound 50, (−)-2,5-DIMETHYL-1H-PYRROLE-3-CARBOXYLIC ACID (6,7,8,9-TETRAHYDRO-5H-BENZOCYCLOHEPTEN-6-YL)-AMIDE] | 1800 nM |  | 3
COc1ccc(C(=O)NC2CCCc3ccccc3C2)cn1 (stereo not drawn) [Compound 102, 6-METHOXY-N-(6,7,8,9-TETRAHYDRO-5H-BENZOCYCLOHEPTEN-6-YL)-NICOTINAMIDE] | 83 nM | 2.9 | 
O=C(NC1CCCc2ccccc2C1)c1ccc(C(F)(F)F)nc1 (single isomer, unassigned) [Compound 37, N-(6,7,8,9-TETRAHYDRO-5H-BENZOCYCLOHEPTEN-6-YL)-6-TRIFLUOROMETHYL-NICOTINAMIDE] | 283 nM | 2.9 | 
O=C(NC1CCCc2ccccc2C1)c1ccc(Cl)nc1 (stereo not drawn) [Compound 10, 6-CHLORO-N-(6,7,8,9-TETRAHYDRO-5H-BENZOCYCLOHEPTEN-6-YL)-NICOTINAMIDE] | 256 nM | 3 | 
O=C(NC1CCCc2ccccc2C1)c1cnn(-c2ccc(Cl)cc2)c1C(F)(F)F (stereo not drawn) [Compound 14, 1-(4-CHLORO-PHENYL)-5-TRIFLUOROMETHYL-1H-PYRAZOLE-4-CARBOXYLIC ACID (6,7,8,9-TETRAHYDRO-5H-BENZOCYCLOHEPTEN-6-YL)-AMIDE] | 1200 nM | 1.7 | 
CN1CC(=O)Nc2cc(C(=O)NC3CCCc4ccccc4C3)ccc21 (stereo not drawn) [Compound 127, 1-METHYL-3-OXO-1,2,3,4-TETRAHYDRO-QUINOXALINE-6-CARBOXYLIC ACID (6,7,8,9-TETRAHYDRO-5H-BENZOCYCLOHEPTEN-6-YL)-AMIDE] | 4900 nM | 2.7 | 
CNc1nc(C)ccc1C(=O)NC1CCCc2ccccc2C1 (single isomer, unassigned) [Compound 123, 6-METHYL-2-METHYLAMINO-N-(6,7,8,9-TETRAHYDRO-5H-BENZOCYCLOHEPTEN-6-YL)-NICOTINAMIDE] | 260 nM | 2.9 | 
Cc1cncc(C(=O)NC2CCCc3ccccc3C2)c1 (stereo not drawn) [Compound 91, 5-METHYL-N-(6,7,8,9-TETRAHYDRO-5H-BENZOCYCLOHEPTEN-6-YL)-NICOTINAMIDE] | 2300 nM | 2.9 | 

These reach a lower EC50. Values come first.

EC50 | Compound | maximal fold induction | TIR(max)
16 nM | O=C(NC1CCCc2ccccc2C1)c1ccc2cc[nH]c2c1 (stereo not drawn) [Compound 20, 1H—INDOLE-6-CARBOXYLIC ACID (6,7,8,9-TETRAHYDRO-5H-BENZOCYCLOHEPTEN-6-YL)-AMIDE] | 3.1 | 
31 nM | Nc1ncccc1C(=O)NC1CCCc2ccccc2C1 (stereo not drawn) [Compound 25, 2-AMINO-N-(6,7,8,9-TETRAHYDRO-5H-BENZOCYCLOHEPTEN-6-YL)-NICOTINAMIDE HYDROCHLORIDE] | 3.1 | 
< 80 nM | O=C(NC1CCCc2ccccc2C1)c1ccc(F)cc1Cl (stereo not drawn) [Compound 4, 2-CHLORO-4-FLUORO-N-(6,7,8,9-TETRAHYDRO-5H-BENZOCYCLOHEPTEN-6-YL)-BENZAMIDE] | 2.8 | 
1 nM | O=C(NC1CCCc2ccccc2C1)c1ccc(F)cc1 (single isomer, unassigned; (-)) [Compound 1a, (−)-4-Fluoro-N-(6,7,8,9-tetrahydro-5H-benzocyclohepten-6-yl)-benzamide] |  | 3.2
41 nM | Cc1nc(C2CC2)sc1C(=O)N[C@H]1CCCc2ccccc2C1 [Compound 120, (S)-2-CYCLOPROPYL-4-METHYL-THIAZOLE-5-CARBOXYLIC ACID (6,7,8,9-TETRAHYDRO-5H-BENZOCYCLOHEPTEN-6-YL)-AMIDE] | 3.1 | 
< 80 nM | CCOc1ccc(C(=O)NC2CCCc3ccccc3C2)cc1 (stereo not drawn) [Compound 5, 4-ETHOXY-N-(6,7,8,9-TETRARYDRO-5H-BENZOCYCLOHEPTEN-6-YL)-BENZAMIDE] |  | 3.0
40 nM | Cc1ccc(C(=O)NC2CCCc3ccccc3C2)c(C)n1 (single isomer, unassigned) [Compound 112, 2,6-DIMETHYL-N-(6,7,8,9-TETRAHYDRO-5H-BENZOCYCLOHEPTEN-6-YL)-NICOTINAMIDE] | 3.1 | 
20 nM | Cc1c(C(=O)NC2CCCc3ccccc3C2)cnn1-c1ccccc1 (stereo not drawn) [Compound 30, 5-METHYL-1-PHENYL-1H-PYRAZOLE-4-CARBOXYLIC ACID (6,7,8,9-TETRARYDRO-5H-BENZOCYCLOHEPTEN-6-YL)-AMIDE] |  | 3.5
30 nM | Nc1ncccc1C(=O)NC1CCCc2ccccc2C1 (single isomer, unassigned) [Compound 24, 2-AMINO-N-(6,7,8,9-TETRAHYDRO-5H-BENZOCYCLOHEPTEN-6-YL)-NICOTINAMIDE] | 3.1 | 
19 nM | Cc1cnc(C(=O)NC2CCCc3ccccc3C2)c(N)n1 (stereo not drawn) [Compound 59, 3-AMINO-5-METHYL-PYRAZINE-2-CARBOXYLIC ACID (6,7,8,9-TETRAHYDRO-5H-BENZOCYCLOHEPTEN-6-YL)-AMIDE] | 3.2 | 
20 nM | Cc1cc(C(=O)NC2CCCc3ccccc3C2)c(C)n1-c1ccccc1 (stereo not drawn) [Compound 96, 2,5-DIMETHYL-1-PHENYL-1H-PYRROLE-3-CARBOXYLIC ACID (6,7,8,9-TETRAHYDRO-5H-BENZOCYCLOHEPTEN-6-YL)-AMIDE] | 3 | 
2 nM | Nc1nc(Cl)ccc1C(=O)N[C@H]1CCCc2ccccc2C1 [Compound 128, (S)-2-AMINO-6-CHLORO-N-(6,7,8,9-TETRAHYDRO-5H-BENZOCYCLOHEPTEN-6-YL)-NICOTINAMIDE] | 3.1 | 

Source: US7709478B2, “Acylated 6,7,8,9-tetrahydro-5H-benzocycloheptenyl amines and their use as pharmaceutical agents” (sanofi-aventis Deutschland GmbH, priority 2001, dated 2010)
